{
  "source": "patent US20060034823A1",
  "about": "“Method of production and use of crotoxin as an analgesic” (priority 2004, published 2006)",
  "key": {"[1]": {"system": "acetic acid writhing response in mice", "assay": "animal or person", "type": "in vivo, Kunming mice", "description": "In the hot-plate test, a animal is positioned on a hot plate and is exposed to a standard heat source, and the time that the animal voluntarily endures the heat, prior to licking its paws, is recorded. In the acid-writhing test, the animal is injected into the intraperitoneal cavity and results in a writhing response. For the tail-flick test the animal's tail is subjected to heat or electrical stimulus and the time taken for the animal to remove its tail away from the noxious stimulus is recorded. Analgesics, particularly opioid analgesics, will prolong these times relative to controls.\nThe mice were randomly divided into 5 groups (n=10 in each group): saline control, acetylsalicylic acid 400 mg/kg^−1, crotoxin 66.5, 44.3, or 29.5 mcg.kg^−1 −1. Pain threshold was measured 3 h after drug administration.\nThe mice were randomly divided into 2 groups (n=10 in each group): saline control and crotoxin 0.3 mcg.kg^−1 −1. The effects of crotoxin on pain threshold were measured 1 hour after crotoxin or saline administration.\nThe mice were randomly divided into 4 groups (n=10 in each group): saline control, crotoxin 44.3 mcg.kg^−1 −1, acetylsalicylic acid (Ace) 300 mg/kg^−1, and crotoxin+acetylsalicylic acid. Acetylsalicylic acid 300 mg/kg^−1 (im) and crotoxin 44.3 mcg.kg^−1 −1 (im) were administrated at the same time. Pain threshold was determined 2 h after crotoxin administration."}, "[2]": {"system": "pain response in mice induced by Hot Plate", "type": "in vivo, Kunming mice", "details": "for Pain thresholds: Acetylsalicylic acid 400 mg·kg−1; for Pain threshold, Baseline: before drugs; for Pain threshold, After drug administration: crotoxin 44.3 μg·kg−1; for Time lapse before pain response: Dolantin 40000 μg/kg ip"}, "[3]": {"details": "in vivo; cited from earlier work"}, "[4]": {"system": "animal models of pain", "assay": "Crotamine in animal models of pain", "type": "in vivo", "details": "applicant's own studies vs published observations", "source_text": "The analgesic effect of snake venom proteins has been known since antiquity and several authors have pointed out the efficiency of the administration of crude cobra or rattlesnake venoms in the treatment of trigeminal neuralgias, tabetic and pain caused by tumors. In the cases of tumoral pains, the patients could be maintained without the administration of morphine in 70% of the cases. Obviously, at the time, crude venoms were employed without even an adequate knowledge of the source or mechanism. Sometimes venoms from cobras captured in India or South Africa were employed indistinctly (see, Haast, U.S. Pat. No. 4,341,762). […] With respect to crotamine, it was assumed that this represented the anti-nociceptive component of Crotalus durissus terrificus venom."}},
  "note": "Values joined by “and” are separate entries in the source; they are usually repeats but may differ in a detail not shown here. Identical values can stand only once. Counter-ions that a name gives are not always drawn. Like-named read-outs stand apart in the source and are kept apart here.",
  "data": [
    {"molecule": "CC(=O)Oc1ccccc1C(=O)O", "note": "[Acetylsalicylic acid, acetylsalicylic acid]", "values": [
      {"measurement": "The number of writhings after administration", "setting": "[1]; Acetylsalicylic acid 400 mg·kg−1, 3 h after drug administration", "value": "8.80 ± 6.36", "unit": "times/10 min"},
      {"measurement": "inhibition at 400 mg/kg", "setting": "[1]; Mus musculus, 3 h, read-out: Percentage inhibition compared with control group", "value": 70.1, "unit": "%"},
      {"measurement": "effect on the analgesic effects of crotoxin", "setting": "[1]; acetylsalicylic acid 300 mg/kg (ip)", "value": "significantly enhanced"},
      {"measurement": "analgesic effect, acetylsalicylic acid study", "setting": "[1]; acetylsalicylic acid 300 mg/kg, crotoxin 44.3 mcg/kg, given at the same time", "value": "significant analgesic effects"},
      {"measurement": "The number of writhings", "setting": "[1]; crotoxin 44.3 μg·kg−1 and acetylsalicylic acid (table: 0.3 mg·kg−1; text: 300 mg/kg) given at the same time, 2 h after crotoxin", "value": "12.13 ± 9.04", "unit": "times/10 min"},
      {"measurement": "Pain thresholds", "setting": "[2]; 1 h after administration", "value": "28.12 ± 6.95", "unit": "s"},
      {"measurement": "Pain thresholds", "setting": "[2]; 2 h after administration", "value": "24.50 ± 14.14", "unit": "s"},
      {"measurement": "Pain thresholds", "setting": "[2]; 3 h after administration", "value": "26.22 ± 14.32", "unit": "s"},
      {"measurement": "Pain thresholds", "setting": "[2]; Baseline", "value": "17.36 ± 2.72", "unit": "s"}
    ]},
    {"molecule": "CN1[C@@H]2CC[C@H]1C[C@@H](OC(=O)C(CO)c1ccccc1)C2", "note": "(stereo partly shown) [Atropine, atropine]", "values": [
      {"measurement": "effect of atropine alone on the pain threshold", "setting": "[2]; atropine 0.5 mg/kg (im)", "value": "no significant effect"},
      {"measurement": "Pain threshold, Baseline", "setting": "[2]; atropine study", "value": "16.87 ± 3.10", "unit": "s"},
      {"measurement": "Pain threshold, After drug administration", "setting": "[2]; atropine 0.5 mg·kg−1 or NS (im) 1.5 h after crotoxin, determined 1.5 h after atropine", "value": "18.46 ± 3.25", "unit": "s"}
    ]},
    {"molecule": "CCOC(=O)C1(c2ccccc2)CCN(C)CC1", "note": "[Dolantin, Meperidine hydrochloride]", "values": [
      {"measurement": "analgesic potency relative to morphine", "setting": "[3]", "value": "one-tenth as potent an analgesic as morphine"},
      {"measurement": "duration", "setting": "[3]", "value": "2 to 4", "unit": "h"},
      {"measurement": "onset of activity", "setting": "[3]", "value": "10 to 45", "unit": "min"},
      {"measurement": "Time lapse before pain response", "setting": "[2]; 30 min after drug, hydrochloride", "value": "56 s and 56.14 s"},
      {"measurement": "Time lapse before pain response", "setting": "[2]; 60 min after drug", "value": 55.49, "unit": "s"},
      {"measurement": "Time lapse before pain response", "setting": "[2]; 90 min after drug, hydrochloride", "value": "36 s and 36.36 s"},
      {"measurement": "Time lapse before pain response", "setting": "[2]; 120 min after drug, hydrochloride", "value": "34 s and 34.03 s"},
      {"measurement": "Time lapse before pain response", "setting": "[2]; Pre-drug, hydrochloride", "value": "13.2 s and 13.20 s"}
    ]},
    {"molecule": "C=CCN1CC[C@]23c4c5ccc(O)c4O[C@H]2C(=O)CC[C@@]3(O)[C@H]1C5", "note": "[Naloxone, Naloxone hydrochloride]", "values": [
      {"measurement": "Pain threshold, After drug administration", "setting": "[2]; naloxone 3 mg·kg−1 or NS (i.p.) 2.5 hours after crotoxin, determined 30 minutes after naloxone", "value": "19.04 ± 4.88", "unit": "s"},
      {"measurement": "effect of naloxone alone on the pain threshold", "setting": "[2]; naloxone 3 mg/kg (ip)", "value": "no significant influence"},
      {"measurement": "effect on the analgesia induced by crotoxin", "setting": "[2]; naloxone (ip)", "value": "had no effect"},
      {"measurement": "Pain threshold, Baseline", "setting": "[2]; naloxone study", "value": "16.97 ± 3.64", "unit": "s"}
    ]},
    {"molecule": "crotamine (YKQCHKKGGHCFPKEKICLPPSSDFGKMDCRWRWKCCKKGSG; UniProt Q9PWF3 23-64, looked up)", "values": [
      {"measurement": "antinociceptive properties", "setting": "[4]", "value": "failed to confirm these published observations"}
    ]}
  ]
}
